Test results: patent US10357576B2, “18F-labelled folate/antifolate analogues” (MERCK & CIE, priority 2012, dated 2019)

Experiment: Ex vivo metabolite studies in KB tumor bearing mice
Conditions: i.v., radio-UPLC
Experimental: Radio-UPLC: For stability studies, an ultra-performance liquid chromatography (UPLC™, Waters) system, equipped with an Acquity UPLC BEH C18 column (1.7 μm, 2.1×50 mm, Waters) and a coincidence detector (FlowStar LB513, Berthold) was used with following solvent system: eluent A was a NaH2PO4/Na2HPO4 buffer (0.05 M, pH 7.4) and eluent B was acetonitrile. A gradient from 0-4.0 min 100%-40% A, at a flow rate of 0.6 ml/min was used.
For the determination of radiometabolites in vivo, 3′-aza-2′-[^18F]fluorofolic acid (60-70 MBq) was intravenously injected into KB tumor bearing mice (n=2). After 5 min, blood samples were drawn from the opposite vein and the animals were sacrificed 30 min after radiotracer injection. The whole blood, liver, tumor and urine were collected. Blood samples were centrifuged at 5000 g for 5 min at 4° C. The proteins of the plasma samples were precipitated by addition of the same volume of ice-cold methanol followed by centrifugation. The supernatants of the plasma and the urine sample were diluted with PBS buffer and analyzed by radio-UPLC. Liver and tumor tissue were homogenized in an equal volume of PBS using a PT 1200 C Polytron (Kinematica AG), respectively. After addition of the same volume of ice-cold MeOH, the mixture was centrifuged at 5000 g for 5 min and 4° C. The supernatant was cleared from remaining proteins by addition of ice-cold methanol, followed by centrifugation. The resulting supernatant fractions were diluted with PBS buffer and analyzed by radio-UPLC.

Radiometabolites in liver (30 min p.i.): signs of metabolism
Radiometabolites in tumor (30 min p.i.): no detectable amounts of metabolites
Radiometabolites in urine (30 min p.i.): no detectable amounts of metabolites
Radiometabolites in plasma (plasma sample 5 min p.i.): no detectable amounts of metabolites
Radiometabolites in plasma (plasma sample 30 min p.i.): no detectable amounts of metabolites
SMILES: Nc1nc2ncc(CNc3ccc(C(=O)N[C@@H](CCC(=O)O)C(=O)O)c([18F])n3)nc2c(=O)[nH]1 [3′-aza-2′-[^18F]fluorofolic acid]
